Laboratory results from patent US20250059188A1, “ARYLSULPHONAMIDE COMPOUNDS” (Anaxis Pharma Pty Ltd, priority 2021, published 2025).

Experiments:
human MLKL (full length) = human MLKL (full length) (Homo sapiens (Human), UniProt Q8NB16); experiment: KINOMEscan binding assay, human MLKL (full length); settings: equilibrium dissociation constant
Method in brief: (§1)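 Kd values come from dose-response fits to the Hill equation (Hill slope −1, Levenberg–Marquardt least squares). Compound competed with bead-bound ligand for tagged kinase, and remaining kinase was measured by qPCR after elution. Dilution series: 11 points, 3-fold, 1% DMSO final, top 30,000 nM in most runs.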

U937 cells = experiment: Counter screen: U937 cell viability without TSQ cocktail (off-target effect); set-up: species or system human; settings: Homo sapiens, U-937, compound without TSQ cocktail, read-out: Off-target effect (IC50 cell-based assay)
Method in brief: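 U937 cells (20,000/well) exposed to compound (10-point 1:3 titration from 36 μM, 0.3% DMSO) without TSQ cocktail for 48 h at 37 °C/5% CO2. Viability read as ATP by CellTiter-Glo luminescence; IC50 from 4-parameter logistic fit.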

[1] = system: U937 human histiocytic leukemia cell line; experiment: Inhibition of TSQ induced necroptosis in U937 cells (CellTitre-Glo); settings: Homo sapiens, U-937, TSQ cocktail (TNF, Smac mimetic, Q-VD-OPh), 48 hours, read-out: Inhibition of TSQ-induced necroptosis (IC50 cell-based assay)
Method in brief: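 U937 cells (20000/well) treated with compound (10-point, 1:3 from 36 μM, 0.3% DMSO) plus TSQ cocktail (hTNF-Fc 100 ng/ml, Smac mimetic 500 nM, Q-VD-OPh 10 μM), 48 h at 37 °C. Viability by CellTiter-Glo luminescence; IC50 from 4-parameter logistic fit. Counter screen: same cells without TSQ.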

human RIPK3 = human RIPK3 (Homo sapiens (Human), UniProt Q9Y572); experiment: KINOMEscan binding assay, human RIPK3; settings: equilibrium dissociation constant
Method in brief: as §1

human RIPK1 = human RIPK1 (Homo sapiens (Human), UniProt Q13546); experiment: KINOMEscan binding assay, human RIPK1; settings: equilibrium dissociation constant
Method in brief: as §1

human RIPK3, sequence (Q9Y572 whole entry): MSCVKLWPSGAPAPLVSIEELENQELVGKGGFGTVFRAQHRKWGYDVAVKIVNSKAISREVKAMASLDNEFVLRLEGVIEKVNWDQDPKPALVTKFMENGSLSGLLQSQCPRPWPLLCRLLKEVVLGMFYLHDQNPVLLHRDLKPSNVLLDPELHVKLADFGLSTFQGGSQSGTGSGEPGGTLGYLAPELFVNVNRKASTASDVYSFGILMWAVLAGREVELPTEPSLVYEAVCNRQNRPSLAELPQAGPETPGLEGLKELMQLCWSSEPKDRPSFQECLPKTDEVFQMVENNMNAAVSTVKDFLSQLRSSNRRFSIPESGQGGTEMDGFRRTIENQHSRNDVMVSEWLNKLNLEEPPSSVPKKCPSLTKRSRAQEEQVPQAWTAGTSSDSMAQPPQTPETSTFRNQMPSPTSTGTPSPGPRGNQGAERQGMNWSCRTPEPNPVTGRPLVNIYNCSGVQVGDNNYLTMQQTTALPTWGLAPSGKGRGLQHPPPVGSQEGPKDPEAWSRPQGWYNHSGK
human RIPK1, sequence (Q13546 whole entry): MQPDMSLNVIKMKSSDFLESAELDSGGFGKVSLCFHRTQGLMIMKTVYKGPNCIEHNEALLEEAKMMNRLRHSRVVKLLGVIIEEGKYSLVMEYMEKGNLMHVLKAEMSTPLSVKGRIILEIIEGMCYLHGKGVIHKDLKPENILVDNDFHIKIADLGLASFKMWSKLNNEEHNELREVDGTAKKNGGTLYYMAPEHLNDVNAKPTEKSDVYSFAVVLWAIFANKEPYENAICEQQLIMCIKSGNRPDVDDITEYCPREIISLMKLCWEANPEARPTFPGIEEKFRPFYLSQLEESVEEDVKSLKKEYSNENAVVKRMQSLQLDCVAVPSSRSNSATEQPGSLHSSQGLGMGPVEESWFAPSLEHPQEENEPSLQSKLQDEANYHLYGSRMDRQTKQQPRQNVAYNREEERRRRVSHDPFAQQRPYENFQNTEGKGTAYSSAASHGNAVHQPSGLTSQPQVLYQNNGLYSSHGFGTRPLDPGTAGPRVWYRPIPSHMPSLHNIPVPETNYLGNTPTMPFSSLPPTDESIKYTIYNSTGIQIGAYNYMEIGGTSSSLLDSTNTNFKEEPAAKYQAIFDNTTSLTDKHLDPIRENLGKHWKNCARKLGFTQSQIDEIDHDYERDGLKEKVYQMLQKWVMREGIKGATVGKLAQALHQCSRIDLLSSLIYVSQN
human MLKL (full length), sequence (Q8NB16 whole entry): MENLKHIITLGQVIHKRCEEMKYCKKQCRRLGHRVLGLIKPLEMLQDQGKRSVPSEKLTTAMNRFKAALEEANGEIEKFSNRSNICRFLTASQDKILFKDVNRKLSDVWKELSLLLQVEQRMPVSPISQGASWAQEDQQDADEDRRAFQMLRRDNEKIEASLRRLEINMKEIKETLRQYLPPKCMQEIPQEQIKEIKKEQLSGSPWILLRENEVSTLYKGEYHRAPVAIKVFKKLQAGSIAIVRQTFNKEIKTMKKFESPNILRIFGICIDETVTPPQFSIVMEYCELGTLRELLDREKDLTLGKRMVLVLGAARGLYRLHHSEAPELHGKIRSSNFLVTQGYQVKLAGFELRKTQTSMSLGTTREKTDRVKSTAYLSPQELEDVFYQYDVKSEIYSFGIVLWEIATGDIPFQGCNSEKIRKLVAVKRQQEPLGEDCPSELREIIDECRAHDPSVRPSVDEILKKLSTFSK

| Compound | Kd (human MLKL (full length)) [µM] | IC50 (U937 cells) [µM] | IC50 [1] [µM] | Kd (human RIPK3) [µM] | Kd (human RIPK1) [µM] |
| --- | --- | --- | --- | --- | --- |
| C[C@H](Oc1cc(-c2nn(C)c3c(-c4cnn(C5CCN(C)C(C)(C)C5)c4)cnc(N)c23)ccc1NS(=O)(=O)C(F)F)c1ccc(F)cc1 (single isomer, unassigned) [Compound 113] | < 0.001 | > 10 | < 0.01 | > 10 | > 10 |
| C[C@H](Oc1cc(-c2nn(C)c3c(-c4cnn(C5CCN(C)C(C)(C)C5)c4)cnc(N)c23)ccc1NS(=O)(=O)C(F)F)c1ccc(F)cc1 (single isomer, unassigned) [Compound 154, N-(4-(4-amino-1-methyl-7-(1-((R*)-1,2,2-trimethylpiperidin-4-yl)-1H-pyrazol-4-yl)-1H-pyrazolo[4,3-c]pyridin-3-yl)-2-((S)-1-(4-fluorophenyl)ethoxy)phenyl)-1,1-difluoromethanesulfonamide] | < 0.001 | > 10 | < 0.01 | > 10 | > 10 |
| C[C@H](Oc1cc(-c2nn(C)c3c(-c4cnn(C5CCN(C)C6(CC6)C5)c4)cnc(N)c23)ccc1NS(=O)(=O)C(F)F)c1ccc(F)cc1 (single isomer, unassigned) [Compound 170, N-(4-(4-amino-1-methyl-7-(1-((S*)-4-methyl-4-azaspiro[2.5]octan-7-yl)-1H-pyrazol-4-yl)-1H-pyrazolo[4,3-c]pyridin-3-yl)-2-((S)-1-(4-fluorophenyl)ethoxy)phenyl)-1,1-difluoromethanesulfonamide] | 0.001 to 0.1 | > 10 | 0.01 to 1 | > 10 | > 10 |
| Cn1nc(-c2ccc(NS(=O)(=O)C(F)F)c(OCc3ccc(F)cc3)c2)c2c(N)ncc(-c3cnn(C4CCOCC4)c3)c21 [Compound 13, N-(4-(4-amino-1-methyl-7-(1-(tetrahydro-2H-pyran-4-yl)-1H-pyrazol-4-yl)-1H-pyrazolo[4,3-c]pyridin-3-yl)-2-((4-fluorobenzyl)oxy)phenyl)-1,1-difluoromethanesulfonamide] | < 0.001 | > 10 | 0.01 to 1 | > 10 | > 10 |
| C[C@H](Oc1cc(-c2nn(C)c3c(-c4cnn(C5CCOCC5)c4)cnc(N)c23)ccc1NS(=O)(=O)C(F)F)c1ccc(F)cc1 [Compound 19, (S)-N-(4-(4-amino-1-methyl-7-(1-(tetrahydro-2H-pyran-4-yl)-1H-pyrazol-4-yl)-1H-pyrazolo[4,3-c]pyridin-3-yl)-2-(1-(4-fluorophenyl)ethoxy)phenyl)-1,1-difluoromethanesulfonamide] | < 0.001 | > 10 | < 0.01 | > 10 | > 10 |
| COCCn1cc(-c2cnc(N)c3c(-c4ccc(NS(=O)(=O)C(F)F)c(O[C@@H](C)c5ccc(F)cc5)c4)nn(C)c23)cn1 [Compound 29, (S)-N-(4-(4-amino-7-(1-(2-methoxyethyl)-1H-pyrazol-4-yl)-1-methyl-1H-pyrazolo[4,3-c]pyridin-3-yl)-2-(1-(4-fluorophenyl)ethoxy)phenyl)-1,1-difluoromethanesulfonamide] | < 0.001 | > 10 | < 0.01 | > 10 | > 10 |
| C[C@H](Oc1cc(-c2nn(C)c3c(-c4cnn(C5CCCC5)c4)cnc(N)c23)ccc1NS(=O)(=O)C(F)F)c1ccc(F)cc1 [Compound 30, (S)-N-(4-(4-amino-7-(1-cyclopentyl-1H-pyrazol-4-yl)-1-methyl-1H-pyrazolo[4,3-c]pyridin-3-yl)-2-(1-(4-fluorophenyl)ethoxy)phenyl)-1,1-difluoromethanesulfonamide] | 0.001 to 0.1 | > 10 | < 0.01 | > 10 | > 10 |
| C[C@H](Oc1cc(-c2nn(C)c3c(-c4cnn(C5CCN(C)CC5)c4)cnc(N)c23)ccc1NS(=O)(=O)C(F)F)c1ccc(F)cc1 [Compound 46, (S)-N-(4-(4-amino-1-methyl-7-(1-(1-methylpiperidin-4-yl)-1H-pyrazol-4-yl)-1H-pyrazolo[4,3-c]pyridin-3-yl)-2-(1-(4-fluorophenyl)ethoxy)phenyl)-1,1-difluoromethanesulfonamide] | 0.001 to 0.1 | 1 to 10 | 0.01 to 1 | > 10 | > 10 |
| C[C@H](Oc1cc(-c2nn(C)c3c(C#CC4CCNCC4)cnc(N)c23)ccc1NS(=O)(=O)C(F)F)c1ccc(F)cc1 [Compound 79, (S)—N-(4-(4-amino-1-methyl-7-(piperidin-4-ylethynyl)-1H-pyrazolo[4,3-c]pyridin-3-yl)-2-(1-(4-fluorophenyl)ethoxy)phenyl)-1,1-difluoromethanesulfonamide] | < 0.001 | > 10 | 0.01 to 1 | > 10 | > 10 |
| C[C@H](Oc1cc(-c2nn(C)c3c(C#CC4CCN(C)CC4)cnc(N)c23)ccc1NS(=O)(=O)C(F)F)c1ccc(F)cc1 [Compound 80, (S)—N-(4-(4-amino-1-methyl-7-((1-methylpiperidin-4-yl)ethynyl)-1H-pyrazolo[4,3-c]pyridin-3-yl)-2-(1-(4-fluorophenyl)ethoxy)phenyl)-1,1-difluoromethanesulfonamide] | < 0.001 | > 10 | 0.01 to 1 | > 10 | > 10 |
| CC(C)N(C)C(=O)C(C)n1cc(-c2cnc(N)c3c(-c4ccc(NS(=O)(=O)C(F)F)c(O[C@@H](C)c5ccc(F)cc5)c4)nn(C)c23)cn1 (stereo partly drawn) [Compound 81, 2-(4-(4-amino-3-(4-((difluoromethyl)sulfonamido)-3-((S)-1-(4-fluorophenyl)ethoxy)phenyl)-1-methyl-1H-pyrazolo[4,3-c]pyridin-7-yl)-1H-pyrazol-1-yl)-N-isopropyl-N-methylpropanamide] | < 0.001 | > 10 | < 0.01 | > 10 | > 10 |
| C[C@H](Oc1cc(-c2nn(C)c3c(-c4cnn(C(C)(C)CO)c4)cnc(N)c23)ccc1NS(=O)(=O)C(F)F)c1ccc(F)cc1 [Compound 97, (S)-N-(4-(4-amino-7-(1-(1-hydroxy-2-methylpropan-2-yl)-1H-pyrazol-4-yl)-1-methyl-1H-pyrazolo[4,3-c]pyridin-3-yl)-2-(1-(4-fluorophenyl)ethoxy)phenyl)-1,1-difluoromethanesulfonamide] | < 0.001 | > 10 | 0.01 to 1 | > 10 | > 10 |
| C[C@H](Oc1cc(-c2nn(C)c3c(-c4cnn(C5(CC#N)COC5)c4)cnc(N)c23)ccc1NS(=O)(=O)C(F)F)c1ccc(F)cc1 [Compound 98, (S)-N-(4-(4-amino-7-(1-(3-(cyanomethyl)oxetan-3-yl)-1H-pyrazol-4-yl)-1-methyl-1H-pyrazolo[4,3-c]pyridin-3-yl)-2-(1-(4-fluorophenyl)ethoxy)phenyl)-1,1-difluoromethanesulfonamide] | < 0.001 | > 10 | 0.01 to 1 | > 10 | > 10 |
| C[C@H](Oc1cc(-c2nn(C)c3c(-c4cnn(C5CC6(C5)CN(C)C6)c4)cnc(N)c23)ccc1NS(=O)(=O)C(F)F)c1ccc(F)cc1 [Compound 99, (S)-N-(4-(4-amino-1-methyl-7-(1-(2-methyl-2-azaspiro[3.3]heptan-6-yl)-1H-pyrazol-4-yl)-1H-pyrazolo[4,3-c]pyridin-3-yl)-2-(1-(4-fluorophenyl)ethoxy)phenyl)-1,1-difluoromethanesulfonamide] | < 0.001 | > 10 | 0.01 to 1 | > 10 | > 10 |
| [2H]C([2H])([2H])N1CCC(n2cc(-c3cnc(N)c4c(-c5ccc(NS(=O)(=O)C(F)F)c(O[C@@H](C)c6ccc(F)cc6)c5)nn(C)c34)cn2)CC1 [Compound 103] | < 0.001 | > 10 | < 0.01 | > 10 | > 10 |
| C[C@H](Oc1cc(-c2nn(C)c3c(-c4cnn(C5CCC(C)(C)N(C)C5)c4)cnc(N)c23)ccc1NS(=O)(=O)C(F)F)c1ccc(F)cc1 (stereo partly shown) [Compound 104, N-(4-{4-amino-1-methyl-7-[1-(1,6,6-trimethylpiperidin-3-yl)-1H-pyrazol-4-yl]-1H-pyrazolo[4,3-c]pyridin-3-yl}-2-[(1 S)-1-(4-fluorophenyl)ethoxy]phenyl)-1,1-difluoromethanesulfonamide] | < 0.001 | > 10 | < 0.01 | > 10 | > 10 |
| CC(=O)N1CCC(n2cc(-c3cnc(N)c4c(-c5ccc(NS(=O)(=O)C(F)F)c(O[C@@H](C)c6ccc(F)cc6)c5)nn(C)c34)cn2)CC1 [Compound 109, (S)—N-(4-(7-(1-(1-acetylpiperidin-4-yl)-1H-pyrazol-4-yl)-4-amino-1-methyl-1H-pyrazolo[4,3-c]pyridin-3-yl)-2-(1-(4-fluorophenyl)ethoxy)phenyl)-1,1-difluoromethanesulfonamide] | < 0.001 | > 10 | < 0.01 | > 10 | > 10 |
